SMILES strings stand for the structures. Converted amounts (≈) assume the structure as drawn.

Some test systems named below: Candida albicans; Escherichia coli UB1005; Acinetobacter baumannii; Enterococcus faecalis; Escherichia coli; Klebsiella pneumoniae; Pseudomonas aeruginosa; Staphylococcus aureus.
Holding throughout (assay): ≥ marks a high value that may be exact or a test limit, other limits are often not marked, values filed in µg/mL are converted to µM
For assay [1], the system named is Escherichia coli ATCC 25726.
In assay [2] the test system is Staphylococcus aureus ATCC 25923.
The subject of assay [3] is Escherichia coli ATCC 25922.
For assay [4], the system named is Pseudomonas aeruginosa Ps4.
Assay [5] relates to Pseudomonas aeruginosa H103.
Assay [6] deals with Pseudomonas aeruginosa PAO1.
Assay [7] deals with Salmonella enterica serovar Typhimurium.
The subject of assay [8] is Staphylococcus epidermidis.

The term MIC denotes the smallest concentration in the dilution series that meets the test's criterion for growth inhibition. As for `CC[C@H](C)[C@H](NC(=O)CNC(=O)CNC(=O)[C@H](CCCCN)NC(=O)[C@H](Cc1ccccc1)NC(=O)[C@H](Cc1ccccc1)NC(=O)[C@H](CCCCN)NC(=O)[C@H](CCCCN)NC(=O)[C@H](CC(C)C)NC(=O)[C@@H](NC(=O)[C@H](CC(=O)O)NC(=O)[C@H](CCCCN)NC(=O)[C@@H](NC(=O)[C@@H](NC(=O)[C@@H]1CCCN1C(=O)[C@@H]1CCCN1C(=O)[C@@H](NC(=O)[C@H](CCCCN)NC(=O)[C@@H](N)Cc1ccccc1)[C@@H](C)CC)[C@@H](C)CC)C(C)C)[C@@H](C)O)C(=O)N[C@@H](C)C(=O)NCC(=O)N[C@H](C(=O)N[C@@H](CCSC)C(=O)NCC(=O)N[C@@H](CCC(N)=O)C(=O)O)C(C)C` [FKIPPIVKDTLKKFFKGGIAGVMGQ], the MIC is 20 µM (≈ 54.4 µg/mL) in [1] and 5 µM (≈ 13.6 µg/mL) in assay [2].

For `CC[C@H](C)[C@@H]1NC(=O)[C@H](C)NC(=O)[C@@H](NC(=O)[C@H](Cc2ccccc2)NC(=O)[C@@H](NC(=O)[C@@H](NC(=O)[C@@H]2CCCN2C(=O)[C@@H](NC(=O)[C@@H](NC(=O)[C@H](CCCCN)NC(=O)[C@H](C)NC(=O)[C@H](C)NC(=O)[C@@H](NC(=O)[C@H](CCCN=C(N)N)NC(=O)[C@H](CC(C)C)NC(=O)[C@@H](NC(=O)[C@H](C)NC(=O)[C@@H]2CCCN2C(=O)[C@H](CC(C)C)NC(=O)[C@@H](N)Cc2ccccc2)C(C)C)C(C)C)[C@@H](C)CC)C(C)C)[C@@H](C)O)C(C)C)CSSC[C@@H](C(=O)O)NC(=O)[C@H](CCCCN)NC(=O)[C@H](CCCCN)NC(=O)[C@H](CO)NC1=O` [FLPAVLRVAAKIVPTVFCAISKKC], the figures for the MIC in assay [1] and in [2] were 24.3 µM (≈ 62.5 µg/mL) and 3.11 µM (≈ 7.99 µg/mL), respectively.

As to `CC[C@H](C)[C@H](NC(=O)[C@H](CC(N)=O)NC(=O)[C@H](CCCN=C(N)N)NC(=O)[C@H](CCC(N)=O)NC(=O)[C@H](Cc1c[nH]c2ccccc12)NC(=O)[C@@H](N)Cc1ccccc1)C(=O)N[C@@H](CCCN=C(N)N)C(=O)N[C@@H](CCCCN)C(=O)N[C@@H](Cc1c[nH]c2ccccc12)C(=O)N[C@@H](CCCN=C(N)N)C(N)=O` [FWQRNIRKWR], the results for the MIC in assay [3] and in assay [4] were 83.9 µM (≈ 125 µg/mL) and no less than 83.9 µM, respectively.

For the compound `CC[C@H](C)[C@H](NC(=O)[C@H](CC(N)=O)NC(=O)[C@H](CCCN=C(N)N)NC(=O)[C@H](CCC(N)=O)NC(=O)[C@H](Cc1c[nH]c2ccccc12)NC(=O)[C@@H](N)Cc1ccccc1)C(=O)N[C@@H](CO)C(=O)N[C@@H](CCCCN)C(=O)N[C@H](C(=O)N[C@@H](CCCN=C(N)N)C(N)=O)C(C)C` [FWQRNISKVR], the MIC in assay [4] is no less than 187 µM.

In assay [4], `CC[C@H](C)[C@H](NC(=O)[C@H](CCCN=C(N)N)NC(=O)[C@H](Cc1c[nH]c2ccccc12)NC(=O)[C@@H](NC(=O)[C@H](CCCN=C(N)N)NC(=O)[C@H](Cc1c[nH]c2ccccc12)NC(=O)[C@@H](N)Cc1ccccc1)[C@@H](C)CC)C(=O)N[C@@H](Cc1c[nH]c2ccccc12)C(=O)N[C@@H](CCCN=C(N)N)C(N)=O` [FWRIWRIWR] registered an MIC of no less than 44.1 µM.

`CC[C@H](C)[C@H](NC(=O)[C@H](CCCN=C(N)N)NC(=O)[C@@H](NC(=O)[C@H](CC(N)=O)NC(=O)[C@H](CCCN=C(N)N)NC(=O)[C@H](Cc1c[nH]c2ccccc12)NC(=O)[C@@H](N)Cc1ccccc1)[C@@H](C)CC)C(=O)N[C@@H](CCCN=C(N)N)C(=O)N[C@@H](CCCN=C(N)N)C(N)=O` [FWRNIRIRR] showed an MIC in assay [4] of no less than 94.9 µM.

In assay [4], `NC(=O)[C@H](CCCN=C(N)N)NC(=O)[C@H](CCCN=C(N)N)NC(=O)[C@H](Cc1c[nH]c2ccccc12)NC(=O)[C@H](CCCN=C(N)N)NC(=O)[C@H](Cc1c[nH]c2ccccc12)NC(=O)[C@@H](N)Cc1ccccc1` [FWRWRR] gave an MIC of no less than 124 µM.

Take `CC[C@H](C)[C@H](NC(=O)CNC(=O)[C@H](Cc1ccccc1)NC(=O)[C@H](CCSC)NC(=O)[C@@H](NC(=O)[C@H](CC(N)=O)NC(=O)[C@H](CCCCN)NC(=O)[C@H](Cc1ccccc1)NC(=O)[C@H](C)NC(=O)CNC(=O)[C@H](CCCCN)NC(=O)[C@H](Cc1ccccc1)NC(=O)CN)C(C)C)C(=O)N[C@@H](C)C(=O)N[C@@H](CCCCN)C(=O)N[C@@H](CO)C(=O)N[C@@H](C)C(=O)NCC(=O)N[C@@H](CCCCN)C(=O)N[C@@H](CO)C(=O)N[C@@H](C)C(=O)N[C@@H](CC(C)C)C(=O)N[C@@H](CC(N)=O)C(=O)N[C@@H](C)C(=O)N[C@@H](CC(C)C)C(=O)N[C@@H](C)C(=O)N[C@H]1CSSC[C@@H](C(=O)O)NC(=O)[C@H](CO)NC(=O)[C@H](CCCCN)NC(=O)[C@H](CC(=O)O)NC(=O)[C@H]([C@@H](C)CC)NC(=O)[C@H](CCCCN)NC1=O` [GFKGAFKNVMFGIAKSAGKSALNALACKIDKSC]: the MIC in [1] and in [2] was 9.18 µM (≈ 31 µg/mL) in each case.

Consider `CC(C)C[C@@H]1NC(=O)CNC(=O)[C@H](CO)NC(=O)[C@H](CC(C)C)NC(=O)[C@H](C)NC(=O)[C@@H](NC(=O)[C@H](C)NC(=O)[C@@H](NC(=O)[C@H](CCCCN)NC(=O)[C@H](CCCCN)NC(=O)CNC(=O)[C@H](C)NC(=O)CNC(=O)[C@H](Cc2ccccc2)NC(=O)[C@H](CC(C)C)NC(=O)[C@H](CO)NC(=O)CNC(=O)[C@H](CC(C)C)NC(=O)[C@H](CC(C)C)NC(=O)CN)C(C)C)CSSC[C@@H](C(=O)O)NC1=O` [GLLGSLFGAGKKVACALSGLC], for which the values for the MIC in assay [1] and in [2] were 31.8 µM (≈ 62.4 µg/mL) and 63.6 µM (≈ 125 µg/mL), respectively.

As for `CC[C@H](C)[C@H](NC(=O)[C@H](CCCN=C(N)N)NC(=O)[C@H](Cc1ccccc1)NC(=O)[C@H](CCCN=C(N)N)NC(=O)[C@@H](N)CCCCN)C(=O)N[C@@H](CCCN=C(N)N)C(=O)N[C@H](C(=O)N[C@@H](CCCN=C(N)N)C(=O)N[C@H](C(=O)N[C@H](C(=O)N[C@@H](CCCN=C(N)N)C(=O)N[C@@H](CCCCN)C(N)=O)[C@@H](C)CC)C(C)C)C(C)C` [KRFRIRVRVIRK], the MIC turned out to be 7.38 µM (≈ 12 µg/mL) in the assay with Candida albicans; 0.983 µM (≈ 1.6 µg/mL) against Escherichia coli UB1005; 3.69 µM (≈ 6 µg/mL) in [5]; 7.38 µM (≈ 12 µg/mL) in assay [6]; 1.84 µM (≈ 3 µg/mL) in assay [7]; 3.69 µM (≈ 6 µg/mL) in [2]. Moreover, in assay [8], the MIC was 0.492 µM (≈ 0.8 µg/mL).

For the compound `CC[C@H](C)[C@H](NC(=O)CNC(=O)[C@H](CCCN=C(N)N)NC(=O)[C@H](Cc1ccc(O)cc1)NC(=O)[C@H](CC(C)C)NC(=O)[C@H](Cc1cnc[nH]1)NC(=O)CNC(=O)[C@H](Cc1ccccc1)NC(=O)[C@@H](N)Cc1c[nH]c2ccccc12)C(=O)N[C@H](C(=O)N[C@@H](CCCCN)C(=O)N[C@H](C(=O)N[C@H](C(=O)N[C@@H](CCCCN)C(=O)N[C@@H](Cc1cnc[nH]1)C(=O)N[C@H](C(=O)N[C@@H](Cc1cnc[nH]1)C(=O)NCC(=O)N[C@@H](CC(C)C)C(=O)N[C@@H](CC(C)C)C(=O)N[C@@H](CCCCN)C(=O)NCC(=O)O)C(C)C)C(C)C)C(C)C)[C@@H](C)O` [WFGHLYRGITKVVKHVHGLLKG], the MIC was 1.2 µM (≈ 3.06 µg/mL) in the assay with Acinetobacter baumannii; 1.2 µM (≈ 3.06 µg/mL) in the assay with Enterococcus faecalis; 2.5 µM (≈ 6.37 µg/mL) with Escherichia coli; 1.2 µM (≈ 3.06 µg/mL) against Klebsiella pneumoniae; 4.9 µM (≈ 12.5 µg/mL) against Pseudomonas aeruginosa; 19.6 µM (≈ 49.9 µg/mL) against Staphylococcus aureus. Further, in assay [8], the MIC was 2.5 µM (≈ 6.37 µg/mL).

For the origin of these results see DBAASP.
